How the values were obtained:
[1] = test system: wildtype (WT) melanocytes; conditions: Ni-Komatsu et al. 2008 Mol Pharmacol; cited from earlier work
[2] = test system: Oca2-null (OCA2) melanocytes; experiment: melanin assay in Oca2-null melanocytes; type: cell-based, mouse; conditions: for pigmentation (melanin level) in Oca2-null melanocytes: FIG. 1, harvested after 5 days, relative to DMSO vehicle
Protocol: (§1) Oca2-null cells were plated in 60 mm dishes for 24 hours followed by dosing with the indicated compounds. DMSO was used as a vehicle control (to establish the baseline for comparison). Cells were harvested after 5 days. Melanocytes were harvested in extraction buffer (50 mM Tris pH7.5, 2 mM EDTA, 150 mM NaCl) containing 1% Triton X-100 and protease inhibitors (Complete, Roche Indianapolis, Ind.) following two washes with 1× phosphate buffered saline (PBS). The lysate was centrifuged for 30 min at 13,000 rpm in a microfuge. The supernatant was removed and the protein concentration determined using a protein assay kit (BioRad, Richmond, Calif.). Three hundred μl of ethanol:ether (1:1) were added to the pellet, which was then vortexed. After incubation at room temperature for 10 min, the solvent was removed (leaving the melanin behind) and the ethanol:ether wash repeated without vortexing. The melanin was then dissolved in 2 N NaOH, 20% DMSO at 60-70° C. The optical density was determined at 490 nm. The value was normalized to protein concentration in the supernatant and expressed as a ratio of the melanin in the vehicle treated cells.
(§2) Cells were seeded in six-well plates in triplicate. After 24 hours, each cell line was treated with IBMX, forskolin or rapamycin, in addition, Oca2-null melanocytes were treated with bafilomycin. Plates were incubated for 72 hours. Melanocytes were harvested and a melanin assay performed as described above.
Oca2-null cells were plated in 60 mm dishes for 24 hours followed by dosing with the indicated compounds. DMSO was used as a vehicle control. […]
Selected compounds identified in the screen were tested using a traditional melanin assay in order to verify the findings of the screen. […] The supernatant was removed and the protein concentration determined using a protein assay kit (BioRad, Richmond, Calif.). […] The optical density was determined at 490 nm. The value was normalized to protein concentration in the supernatant and expressed as a ratio of the melanin in the untreated cells.

[3] = test system: Oca3-null (OCA3) melanocytes; experiment: melanin assay in Oca3-null melanocytes; type: cell-based, murine; conditions: FIG. 2; 72 hours; relative to vehicle
Protocol: as §1
Oca3-null melanocytes were seeded in six-well plates in triplicate. After 24 hours, each cell line was treated with vehicle, chloroquine or rapamycin. Plates were incubated for 72 hours. Melanocytes were harvested and a melanin assay performed as described above.

Oca2-null cells = experiment: 96-well melanin absorbance screen with MTS cell proliferation assay; type: cell-based, mouse; conditions: library compounds at 5 and/or 1 μM; bafilomycin A1 as positive control
Protocol: The present inventors utilized the chemical genetics approach described herein to identify compounds that can be used to reverse the diminished pigmentation in Oca2-null cells. To this end, they first developed a 96-well assay system for rapid compound screening. Melanocytes were cultured in a 96-well plate in the presence of test compounds. Melanin content was determined by replacing the culture medium with PBS and measuring absorbance at 490 nm.
Following validation of their assay system, the present inventors performed a screen, treating Oca2-null cells with library compounds at concentrations of 5 and/or 1 μM. Each plate included untreated Oca2-null cells as negative controls and cells treated with bafilomycin A1 as positive controls. Compounds identified as potential hits were then re-screened to verify their ability to promote melanin synthesis in cells lacking functional Oca2 protein.

Oca2-null melanocytes = experiment: toxicity to Oca2-null melanocytes; type: cell-based, mouse; conditions: compared with wildtype melanocytes
wildtype melanocytes = experiment: toxicity to wildtype melanocytes; type: cell-based; conditions: even at nanomolar concentrations
[4] = test system: wildtype (WT) melanocytes; experiment: melanin assay in wildtype melanocytes; type: cell-based; conditions: FIG. 3; 72 hours
Protocol: as §2
Wildtype cells were plated in 24-well plates for 24 hours followed by dosing with the indicated compounds. DMSO was used as a vehicle control. Cells were harvested after 3 days and a melanin assay was performed as described above.
Selected compounds identified in the screen were tested using a traditional melanin assay in order to verify the findings of the screen. Following 3 (normal melanocytes) or 5 (mutant melanocytes) days of treatment, melanocytes were harvested in extraction buffer (50 mM Tris pH7.5, 2 mM EDTA, 150 mM NaCl) containing 1% Triton X-100 and protease inhibitors (Complete, Roche Indianapolis, Ind.) following two washes with 1× phosphate buffered saline (PBS). The lysate was centrifuged for 30 min at 13,000 rpm in a microfuge. The supernatant was removed and the protein concentration determined using a protein assay kit (BioRad, Richmond, Calif.). […] The optical density was determined at 490 nm. The value was normalized to protein concentration in the supernatant and expressed as a ratio of the melanin in the untreated cells.

melanoma cells = conditions: reported previously; by upregulating expression of tyrosinase; cited from earlier work

## CCN(CC)CCCC(C)Nc1ccnc2cc(Cl)ccc12 (racemic) [chloroquine, (RS)—N′-(7-chloroquinolin-4-yl)-N,N-diethyl-pentane-1,4-diamine]
[1]
  pigmentation in normal melanocytes: decrease pigmentation
[2]
  pigmentation (melanin level) in Oca2-null melanocytes: increase pigmentation
[3]
  pigmentation (melanin level) in Oca3-null melanocytes: increase pigmentation

## CO/C1=C\C(C)=C\[C@@H](C)[C@@H](O)[C@@H](C)C/C(C)=C/C=C/[C@H](OC)[C@@H]([C@@H](C)[C@@H](O)[C@H](C)[C@@]2(O)C[C@@H](O)[C@H](C)[C@@H](C(C)C)O2)OC1=O [Bafilomycin, bafilomycin A1]
[2]; FIG. 3, 72 hours
  melanin content of Oca2-null (OCA2) melanocytes: increased the melanin content
Oca2-null cells
  pigmentation of Oca2-null cells in 96-well screen: reverses the pigmentation phenotype
Oca2-null melanocytes
  accompanying toxicity in Oca2-null melanocytes: much less accompanying toxicity
Wildtype melanocytes
  toxicity to wildtype melanocytes: highly toxic

## CC(C)Cn1c(=O)n(C)c(=O)c2[nH]cnc21 [IBMX, 3-isobutyl-1-methylxanthine]
[4]
  melanin content of wildtype (WT) melanocytes: effective in increasing the melanin content

## CO[C@H]1C[C@@H]2CC[C@@H](C)[C@@](O)(O2)C(=O)C(=O)N2CCCC[C@H]2C(=O)O[C@H]([C@H](C)C[C@@H]2CC[C@@H](O)[C@H](OC)C2)CC(=O)[C@H](C)/C=C(\C)[C@@H](O)[C@@H](OC)C(=O)[C@H](C)C[C@H](C)/C=C/C=C/C=C/1C [rapamycin, Rapamycin]
[2]
  pigmentation (melanin level) in Oca2-null melanocytes: increase pigmentation
[3]
  pigmentation (melanin level) in Oca3-null melanocytes: increase pigmentation
Melanoma cells
  pigmentation in melanoma cells: increase pigmentation
